Test results: patent US20230002352A1, “SULFONAMIDE DERIVATIVES AS CTPS1 INHIBITORS” (Step Pharma S.A.S., priority 2019, published 2023)
Read-outs that look alike come from different tables or passages of the source.

Legend:
human CTPS1 = target: T1, human CTPS1 (Homo sapiens, UniProt P17812); experiment: Human CTPS1 enzyme inhibition (ADP-Glo Max assay); type: biochemical; conditions: ADP-Glo Max assay, read-out: CTPS1 (Human CTPS1 Enzyme Inhibition data grouped by potency range, IC50)
T1 construct: purchased Proteros biostructures GmbH
T1 sequence (P17812 1-591): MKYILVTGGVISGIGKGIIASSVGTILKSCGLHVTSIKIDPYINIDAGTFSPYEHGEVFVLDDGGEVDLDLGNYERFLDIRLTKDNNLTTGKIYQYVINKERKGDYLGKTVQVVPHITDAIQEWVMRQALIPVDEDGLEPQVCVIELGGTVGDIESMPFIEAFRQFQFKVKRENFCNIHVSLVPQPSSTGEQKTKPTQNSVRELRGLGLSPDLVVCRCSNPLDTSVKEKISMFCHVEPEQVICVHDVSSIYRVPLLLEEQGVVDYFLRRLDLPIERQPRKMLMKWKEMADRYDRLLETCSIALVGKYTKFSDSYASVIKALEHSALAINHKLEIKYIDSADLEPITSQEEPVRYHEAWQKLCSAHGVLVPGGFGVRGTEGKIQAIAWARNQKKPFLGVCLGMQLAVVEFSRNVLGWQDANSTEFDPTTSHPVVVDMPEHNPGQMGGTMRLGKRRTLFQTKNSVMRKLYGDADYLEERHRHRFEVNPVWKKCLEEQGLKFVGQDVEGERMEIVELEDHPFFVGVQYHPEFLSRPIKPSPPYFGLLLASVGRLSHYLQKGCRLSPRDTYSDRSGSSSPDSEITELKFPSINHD
In short: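 Full-length FLAG-His-tagged human CTPS1 and compound were preincubated 10 min at 25 °C in 50 mM Tris pH 8.0, 10 mM MgCl2, 0.01% Tween-20, 2 mM L-cysteine. Substrate mix: ATP 0.31 mM, GTP 0.034 mM, UTP 0.48 mM, glutamine 0.186 mM; linear-phase reaction at 25 °C. ADP-Glo Max luminescence; IC50 from inhibition curve.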

human CTPS1 versus CTPS2 = experiment: Human CTPS1 versus CTPS2 selectivity assessment by RapidFire/MS analysis; type: biochemical
Experimental: Biological Example 2—RapidFire/MS-Based Enzyme Selectivity Assays.
Human CTPS1 Versus CTPS2 Selectivity Assessment by RapidFire/MS Analysis.
The enzyme inhibitory activities against each target isoform of interest may be determined for the compounds of the invention using an optimised RapidFire high-throughput mass spectrometry (RF/MS) assay format. RF/MS assays for both human CTPS1 and CTPS2 may be performed in assay buffer consisting of 50 mM HEPES (Merck), 20 mM MgCl2, 5 mM KCl, 1 mM DTT, 0.01% Tween-20, pH to 8.0 accordingly. Human full-length active C-terminal FLAG-His-tag CTPS1 (UniProtKB-P17812, CTPS[1-591]-[…]) may be obtained from Proteros biostructures GmbH. Human full length active C-terminal FLAG-His-Avi tagged CTPS2 (UniProtKB-Q9NRF8, CTPS2 [1-586]-[…]) may be obtained from Harker Bio.
Human CTPS (1 or 2) protein may be prepared in 1× assay buffer to the final working protein concentration required for the reaction. A 2 uL volume per well of 2×CTPS (1 or 2) protein may be mixed with 40 nL of compound using acoustic (ECHO) delivery and incubated for 10 minutes at 25° C. Each isoform enzymatic reaction may be subsequently initiated by addition of 2 uL per well of a 2× substrate mix in assay buffer. For hCTPS1: ATP (0.3 mM), UTP (0.2 mM), GTP (0.07 mM) and L-glutamine (0.1 mM). For hCTPS2: ATP (0.1 mM), UTP (0.04 mM), GTP (0.03 mM) and L-glutamine (0.1 mM). Each mixture may be incubated for an appropriate amount of time per isoform within the determined linear phase of the reaction at 25° C. A 60 uL volume of stop solution (1% formic acid with 0.5 uM ^13C9-^15N3-CTP in H2O) may be added and the plate immediately heat-sealed and centrifuged for 10 minutes at 4,000 rpm. Following centrifugation, plates may be loaded onto the Agilent RapidFire microfluidic solid phase extraction system coupled to an AP14000 triple quadrupole mass spectrometer (RF/MS) for analysis.
In all cases, the enzyme converts UTP to CTP. Highly specific and sensitive multiple reaction monitoring (MRM) MS methods may be optimised for the detection of the enzymatic reaction product, CTP, and the stable isotope labelled product standard ^13C9-^15N3-CTP. Readout for data analysis may be calculated as the ratio between the peak area of the product CTP and the internal standard ^13C9-^15N3-CTP. For data reporting, the following equation may be used: […]
For each screening plate, the means of the negative (DMSO) and positive control values were used for the calculation of the respective assay window (S/B) and Z′ values. The median of the respective control values was used for calculation of percent inhibition according to the following equation: […]
Percentage inhibition was then plotted against compound concentration, and the 50% inhibitory concentration (IC50) was determined from the resultant concentration-response curve.
Fold selectivity between CTPS1 and CTPS2 was subsequently calculated according to the following equation: […]

| SMILES | IC50 (human CTPS1; Table 23) | IC50 (human CTPS1; Table 24) | Selectivity (fold selectivity between CTPS1 and CTPS2) (human CTPS1 versus CTPS2; Table 26) | Selectivity (fold selectivity between CTPS1 and CTPS2) (human CTPS1 versus CTPS2; Table 27) |
| --- | --- | --- | --- | --- |
| CC(C)c1cncc(-c2ccc(NC(=O)C(C)(C)c3ccnc(NS(=O)(=O)C4CC4)n3)cc2)n1 [Example P132] | 100 to 1000 nM |  | ++ (>30-60 fold (++)) |  |
| CCOc1cncc(-c2ccc(NC(=O)C(F)(CC)c3ccnc(NS(C)(=O)=O)n3)nc2)n1 (stereo not shown) [Example P151] | ≤ 100 nM |  | +++ (>60 fold (+++)) |  |
| CCOc1cncc(-c2ccc(NC(=O)C(C)(C)c3ccnc(NS(=O)(=O)C4CC4)n3)c(F)c2)n1 [Example P38] | ≤ 100 nM |  | + (2-30 fold (+)) |  |
| CCOc1cncc(-c2cnc(NC(=O)C(CC)c3ccnc(NS(=O)(=O)C4CC4)n3)c(C)c2)n1 (stereo not shown) [Example P155] | ≤ 100 nM |  | + (2-30 fold (+)) |  |
| CC(C)(C(=O)Nc1ccc(-c2cncc(C3CC3)n2)cc1F)c1ccnc(NS(=O)(=O)C2CC2)n1 [Example P128] | 100 to 1000 nM |  | + (2-30 fold (+)) |  |
| CC(C)Oc1cncc(-c2ccc(NC(=O)C(C)(C)c3ccnc(NS(=O)(=O)C4CC4)n3)c(F)c2)n1 [Example P39] | ≤ 100 nM |  | + (2-30 fold (+)) |  |
| CCOc1cncc(-c2cnc(NC(=O)C(CC)c3ccnc(NS(=O)(=O)C4CC4)n3)c(F)c2)n1 (stereo not shown) [Example P162] | ≤ 100 nM |  | ++ (>30-60 fold (++)) |  |

Now from value to compound, other results behind:

| IC50 (human CTPS1; Table 23) | IC50 (human CTPS1; Table 24) | SMILES | Selectivity (fold selectivity between CTPS1 and CTPS2) (human CTPS1 versus CTPS2; Table 26) | Selectivity (fold selectivity between CTPS1 and CTPS2) (human CTPS1 versus CTPS2; Table 27) |
| --- | --- | --- | --- | --- |
|  | ≤ 100 nM | CCOc1cncc(-c2ccc(NC(=O)C3(c4ccnc(NS(=O)(=O)C5CC5)n4)CCC(O)CC3)nc2)n1 (single isomer, unassigned) [Example P227, 1-(2-(cyclopropanesulfonamido)pyrimidin-4-yl)-N-(5-(6-ethoxypyrazin-2-yl)pyridin-2-yl)-4-hydroxycyclohexanecarboxamide] |  | +++ (>60 fold (+++)) |
|  | 1000 to 10000 nM | CCOc1cncc(-c2ccc(NC(=O)C3(c4ccnc(NS(=O)(=O)C5CC5)n4)CCC(O)CC3)nc2)n1 (single isomer, unassigned) [Example P228, 1-(2-(cyclopropanesulfonamido)pyrimidin-4-yl)-N-(5-(6-ethoxypyrazin-2-yl)pyridin-2-yl)-4-hydroxycyclohexanecarboxamide] |  | + (2-30 fold (+)) |
| ≤ 100 nM |  | CCOc1cncc(-c2ccc(NC(=O)C(C)(CC)c3ccnc(NS(=O)(=O)C4CC4)n3)nc2)n1 (stereo not shown) [Example P163] | +++ (>60 fold (+++)) |  |
| ≤ 100 nM |  | CCOc1cncc(-c2ccc(NC(=O)Cc3ccnc(NS(=O)(=O)C4CC4)n3)cc2)n1 [Example P18, 2-(2-(Cyclopropanesulfonamido)pyrimidin-4-yl)-N-(4-(6-ethoxypyrazin-2-yl)phenyl)acetamide] | ++ (>30-60 fold (++)) |  |
| ≤ 100 nM |  | CCOc1cncc(-c2ccc(NC(=O)C3(c4cncc(NS(=O)(=O)C5CC5)n4)CCOCC3)nc2)n1 [Example P197] | +++ (>60 fold (+++)) |  |
| ≤ 100 nM |  | CCOc1cncc(-c2ccc(C(=O)NCc3ccnc(NS(=O)(=O)C4CC4)n3)cc2)n1 [Example P118] | +++ (>60 fold (+++)) |  |
| 100 to 1000 nM |  | CC(C)(C(=O)Nc1ccc(-c2cncc(C3CC3)n2)cn1)c1ccnc(NS(=O)(=O)C2CC2)n1 [Example P125] | ++ (>30-60 fold (++)) |  |
|  | ≤ 100 nM | CCOc1cncc(-c2ccc(NC(=O)C3(c4ccnc(NS(=O)(=O)C5CC5)n4)CCC(F)(F)CC3)nc2)n1 [Example P242] |  | +++ (>60 fold (+++)) |
| ≤ 100 nM |  | CCOc1cncc(-c2ccc(NC(=O)C3(c4ccnc(NS(=O)(=O)C5CC5)n4)CCOCC3)c(F)c2)n1 [Example P143] | +++ (>60 fold (+++)) |  |
| ≤ 100 nM |  | CCOc1cncc(-c2ccc(NC(=O)C(OC)c3ccnc(NS(=O)(=O)C4CC4)n3)cc2)n1 (stereo not shown) [Example P164] | + (2-30 fold (+)) |  |
